{"source": "paper PMC6013238", "about": "“Development of novel NEMO-binding domain mimetics for inhibiting IKK/NF-κB activation” (PLoS Biology, 2018)", "key": {"[1]": {"system": "mdx mice", "test": "Chronic treatment of mdx mice, CD68 immunostaining (macrophages)", "assay_type": "in vivo, mouse", "conditions": "for CD68+ cells, number of cells per myofiber: SR12343 30 mg/kg 4 wk, single measures and ave, 30 mg/kg", "method": "To determine whether SR12343 and SR12460 improve muscle pathology, TA muscle was stained with hematoxylin–eosin to assess inflammatory infiltration, necrosis, central nucleation, and fibrosis. […] In addition, Masson trichrome stain was conducted to further measure muscle fibrosis. Chronic treatment with SR12343 reduced muscle fibrosis (blue) in diaphragm and TA muscle tissues in comparison to control group (Fig 8A & 8B). To further quantitate the extent of inflammation in mdx muscle tissues, diaphragm and TA muscle were immunostained for cluster of differentiation 68 (CD68), a macrophage marker. Treatment with SR12343 reduced the number of CD68^+ cells by almost 50% per myofiber in both diaphragm and TA tissues (Fig 8A & 8B). […] To quantify the average fiber size in an unbiased way, TA muscle was stained with laminin to outline myofibers, and Feret diameter of all myocytes was quantitated in a whole muscle section.\nFig 8 Chronic treatment with NBD mimetics reduces muscle fibrosis by decreasing macrophage infiltration in mdx mice. (A, B) Trichrome and CD68 staining of (A) diaphragm and (B) TA muscle from 7-wk-old, SR12343-treated or -untreated mdx mice. CD68 (red): marker of tissue macrophage; utrophin (green): stain for myofiber; DAPI (blue): nuclei. Trichrome images were taken at the magnification of 4× for TA and 10× for diaphragm. IHC images were taken at 10× for TA and 20× for diaphragm. Representative images were shown for each treatment group. Data were shown as mean +/− SEM. *P < 0.05; **P < 0.01; ***P < 0.001. Underlying data can be found in S1 Data. CD68, cluster of differentiation 68; IHC, immunohistochemistry; NBD, NEMO-binding domain; NEMO, NF-κB essential modulator; TA, tibialis anterior.\nThe frozen tissue sections were fixed with 4% paraformaldehyde for 1 h and incubated with 1% BSA for blocking. The primary antibodies CD68 (Abcam, Cambridge, MA) and utrophin (Santa Cruz) were applied at 1:200 for 2 h. The secondary antibodies Alexa Fluor 594 and Alexa Fluor 488 were then applied at 1:400 for 1 h. DAPI (1;1000) solution was used to stain the cell nucleus. All the processes were performed at room temperature."}, "[2]": {"molecular_target": "T1, NEMO/IKKα interaction (Mus musculus, UniProt O88522)", "T1 construct": "Co-immunoprecipitation of endogenous IKKβ and NEMO; endogenous in cells; host or cells: Raw 264.7", "T1 sequence (O88522 whole entry)": "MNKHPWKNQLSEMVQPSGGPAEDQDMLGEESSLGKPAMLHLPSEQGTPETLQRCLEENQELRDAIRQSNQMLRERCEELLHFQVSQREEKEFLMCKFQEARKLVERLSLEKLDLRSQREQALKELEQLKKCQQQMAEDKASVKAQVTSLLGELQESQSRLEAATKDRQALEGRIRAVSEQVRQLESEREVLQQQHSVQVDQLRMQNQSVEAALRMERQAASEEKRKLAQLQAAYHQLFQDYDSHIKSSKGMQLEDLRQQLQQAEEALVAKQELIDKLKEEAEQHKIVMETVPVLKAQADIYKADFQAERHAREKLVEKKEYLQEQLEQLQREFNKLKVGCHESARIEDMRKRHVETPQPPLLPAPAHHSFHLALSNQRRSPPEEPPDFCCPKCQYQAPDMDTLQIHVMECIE", "test": "Co-immunoprecipitation of NEMO and IKKα in Raw 264.7 cells", "assay_type": "cell-based", "conditions": "0, 25, 50, 100, 150 μM, 30 min", "method": "To determine whether the novel NBD mimetics target the NEMO-IKKβ interaction in vivo, co-immunoprecipitations were performed using extracts from Raw 264.7 macrophages (Fig 5A). […] No interaction between NEMO and TNF receptor-associated factor 2 (TRAF2) or IκBα was observed under these conditions. […] The levels of phosphorylated IKK complex, IκBα, and p65 in response to TNF-α and LPS were all reduced by SR12343 (Fig 5D & 5E). […] However, there were no changes in the levels of phospho-c-Jun N-terminal kinase (p-JNK), p-p38MAPK, total JNK, and p38MAPK by treatment with SR12343 (150 μM) in response to TNF-α or LPS stimulation (Fig 5G & 5H). […]\n(A) Co-IP analysis detecting the IKKβ/NEMO interaction. […] NEMO-binding products were then analyzed for levels of IKKβ, IKKα, TRAF2, and IκBα (negative control), and levels of NEMO were used as a loading control (left panel). […] The levels of IKKβ-FLAG binding to GST-NEMO were determined by western blot analysis with GST-NEMO used as a loading control. […] Cell lysates were analyzed for activity of the IKK/NF-κB signaling pathway including activation of IKK complex, IκBα, and p65. […] Cell lysates were harvested and analyzed for activation of noncanonical NF-κB signaling, the processing of p100 to p52. […]"}}, "note": "Values joined by “and” are separate entries in the source; they are usually repeats but may differ in a detail not shown here. Equal entries are not always repeated."}
{"smiles": "O=C(CNc1ccc(Cl)cn1)NCCc1cccc(Br)c1", "note": "[SR12343]", "values": [{"measurement": "CD68+ cells, number of cells per myofiber", "setting": "[1]; Fig 8A, diaphragm muscle", "result": "1.156 and 1.07 and 1.196"}, {"measurement": "CD68+ cells, number of cells per myofiber", "setting": "[1]; Fig 8A, diaphragm muscle, mean", "result": 1.14}, {"measurement": "CD68+ cells, number of cells per myofiber", "setting": "[1]; Fig 8B, TA muscle", "result": "0.646 and 0.5862 and 0.6154"}, {"measurement": "CD68+ cells, number of cells per myofiber", "setting": "[1]; Fig 8B, TA muscle, mean", "result": 0.6159}, {"measurement": "Reduction of number of CD68+ cells per myofiber", "setting": "[1]; diaphragm and TA tissues", "result": "~50", "unit": "%"}, {"measurement": "NEMO/IKKα binding (Co-IP)", "setting": "[2]", "result": "only a marginal effect"}]}
